SMILES strings stand for the structures.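 Protocol summary: plate cells (96-well), add compound at 5 concentrations, incubate 48 h, interpolate endpoints linearly. Definition used: TGI = concentration required for complete inhibition of growth.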 Bounds are passed on as bounds.

Test systems include DU-145 prostate; LOX IMVI melanoma; HCT-116 colon; MALME-3M melanoma; OVCAR-3 ovarian; A549 NSCLC; TK-10 renal; M14 melanoma; HCT-15 colon; RPMI-8226 leukemia; BT-549 breast; NCI/ADR-RES ovarian; MDA-MB-231 breast; CAKI-1 renal; KM12 colon; SK-MEL-2 melanoma; EKVX NSCLC; 786-0 renal; MDA-N.
Assay in all cases: inhibition of tumour cell growth, NCI panel, 48 h

Regarding `CCOC(=O)C(NNS(=O)(=O)c1ccc(C)cc1)S(=O)(=O)C(F)(F)C(F)(F)C(F)(F)C(F)(F)F` (stereo not given), the TGI in the assay with DU-145 prostate, in the assay with LOX IMVI melanoma, in the assay on HCT-116 colon, in the assay on MALME-3M melanoma, in the assay with OVCAR-3 ovarian and in the assay with A549 NSCLC was over 100 µM each time. Moreover, the TGI in the assay with TK-10 renal, in the assay with M14 melanoma, in the assay on HCT-15 colon, in the assay on RPMI-8226 leukemia, in the assay on BT-549 breast and with NCI/ADR-RES ovarian was over 100 µM each time. In addition, the TGI with MDA-MB-231 breast, in the assay on CAKI-1 renal, in the assay on KM12 colon, with SK-MEL-2 melanoma, with EKVX NSCLC and with 786-0 renal was over 100 µM in each case. For the same compound, the TGI with MDA-N was over 100 µM.

With `O=C1CCC(=O)N1CNc1ccc2c(c1)Sc1ccccc1O2`, the TGI in the assay on DU-145 prostate was over 100 µM; in the assay on LOX IMVI melanoma, 68.9 µM; in the assay on HCT-116 colon, 45.7 µM; in the assay with MALME-3M melanoma, over 100 µM; in the assay on OVCAR-3 ovarian, 75 µM; in the assay on A549 NSCLC, over 100 µM. Further, the TGI with TK-10 renal was over 100 µM; in the assay on M14 melanoma it was 99.2 µM; with HCT-15 colon it was over 100 µM; with RPMI-8226 leukemia it was over 100 µM; in the assay with BT-549 breast, 93.4 µM; in the assay on NCI/ADR-RES ovarian it was over 100 µM. Further, the TGI in the assay with MDA-MB-231 breast was over 100 µM; in the assay on CAKI-1 renal, over 100 µM; in the assay with KM12 colon, over 100 µM; with SK-MEL-2 melanoma, 40.6 µM; in the assay on EKVX NSCLC, 75.4 µM; in the assay on 786-0 renal it was 58.9 µM. This compound had a TGI in the assay on MDA-N of over 100 µM.

For `CC(=O)OCC1OC(n2c(C)c(N=Nc3ccc(C)cc3)c(C)c(C#N)c2=S)C(OC(C)=O)C(OC(C)=O)C1OC(C)=O` (stereo not given), the TGI in the assay with DU-145 prostate, in the assay with LOX IMVI melanoma, in the assay with HCT-116 colon, in the assay on MALME-3M melanoma, in the assay with OVCAR-3 ovarian and in the assay on A549 NSCLC was over 100 µM each time. For the same compound, the TGI in the assay on TK-10 renal, in the assay on M14 melanoma, in the assay with RPMI-8226 leukemia, in the assay on BT-549 breast, in the assay with NCI/ADR-RES ovarian and in the assay with MDA-MB-231 breast was over 100 µM in each case. In addition, the TGI with CAKI-1 renal is over 100 µM; with KM12 colon, over 100 µM; with 786-0 renal, 72.4 µM; in the assay on MDA-N it was over 100 µM.

As for `O=C(O)CN1CCNCCN(CC(=O)O)CC1`, the TGI was over 100 µM in the assay with DU-145 prostate; over 100 µM in the assay on LOX IMVI melanoma; over 37.3 µM in the assay with HCT-116 colon; over 100 µM in the assay on MALME-3M melanoma; over 100 µM in the assay with OVCAR-3 ovarian; over 80 µM with A549 NSCLC. In addition, the TGI in the assay on TK-10 renal is over 90.6 µM; with M14 melanoma, over 100 µM; in the assay on HCT-15 colon, over 100 µM; with RPMI-8226 leukemia it was over 100 µM; with BT-549 breast, over 100 µM; in the assay on NCI/ADR-RES ovarian, 7.3 µM. Moreover, the TGI in the assay with MDA-MB-231 breast, in the assay with CAKI-1 renal, with KM12 colon, with SK-MEL-2 melanoma, with EKVX NSCLC and in the assay with 786-0 renal was over 100 µM in each case. Moreover, the TGI in the assay on MDA-N was over 100 µM.

In the case of `C[C@]12CC[C@@H]3c4ccc(OC(=O)c5ccccc5)cc4CC[C@H]3[C@@H]1CCC2OC(=O)c1cccc2c(=O)c3ccccc3[nH]c12` (stereo not given in full), the TGI was 42.6 µM in the assay with DU-145 prostate; 31 µM with LOX IMVI melanoma; 30.5 µM in the assay on HCT-116 colon; 46.8 µM with MALME-3M melanoma; over 100 µM in the assay on OVCAR-3 ovarian; 31.5 µM in the assay on A549 NSCLC. The TGI with TK-10 renal is 39.1 µM; with M14 melanoma, 37.3 µM; with HCT-15 colon it was 29 µM; in the assay with RPMI-8226 leukemia, over 100 µM; with BT-549 breast, 38 µM; in the assay with NCI/ADR-RES ovarian, 39.9 µM. The TGI was 40.8 µM in the assay on MDA-MB-231 breast; 58.9 µM with CAKI-1 renal; 29.6 µM in the assay with KM12 colon; 54.3 µM with SK-MEL-2 melanoma; 30.4 µM in the assay on EKVX NSCLC; 31.7 µM with 786-0 renal. This compound also came in with a TGI in the assay on MDA-N of 27.8 µM.

Take `O=S(=O)(O)c1cc(S(=O)(=O)O)c2c(N=Nc3cccc4ccccc34)c(O)ccc2c1`: the TGI in the assay on DU-145 prostate, with LOX IMVI melanoma, in the assay with HCT-116 colon, with MALME-3M melanoma, with OVCAR-3 ovarian and in the assay with A549 NSCLC was over 100 µM in each case. The TGI with TK-10 renal, in the assay with M14 melanoma, in the assay on HCT-15 colon, in the assay on RPMI-8226 leukemia, in the assay with BT-549 breast and in the assay with NCI/ADR-RES ovarian was over 100 µM each time. The TGI with MDA-MB-231 breast, in the assay on CAKI-1 renal, in the assay on KM12 colon, with SK-MEL-2 melanoma, in the assay on EKVX NSCLC and in the assay with 786-0 renal was over 100 µM in each case. Moreover, the TGI in the assay on MDA-N is over 100 µM.

For `CCCCCCCC1c2cc3[nH]c(cc4nc(cc5[nH]c(cc(n2)[C@@]1(C)CC(=O)N(C)C)c(C)c5CCC(=O)O)C(CCC(=O)O)=C4C)cc3C` (stereo not given in full), the TGI in the assay with DU-145 prostate is 57 µM; with LOX IMVI melanoma it was 33.3 µM; in the assay on HCT-116 colon it was 32.5 µM; in the assay with MALME-3M melanoma, 39 µM; with OVCAR-3 ovarian it was 37.1 µM; in the assay with A549 NSCLC, over 100 µM. The TGI is 79.3 µM in the assay with TK-10 renal; 29.8 µM in the assay on M14 melanoma; 39.5 µM in the assay on HCT-15 colon; 47.7 µM in the assay on RPMI-8226 leukemia; 28.6 µM in the assay on BT-549 breast; 43.1 µM in the assay with NCI/ADR-RES ovarian. Moreover, the TGI in the assay with MDA-MB-231 breast was 33.7 µM; with CAKI-1 renal, over 100 µM; in the assay with KM12 colon, 58.5 µM; in the assay on SK-MEL-2 melanoma it was 34 µM; with EKVX NSCLC it was over 100 µM; in the assay with 786-0 renal, 83.1 µM. The same compound returned a TGI with MDA-N of over 100 µM.

The record behind these values is PubChem BioAssay (NCI).
